Laboratory results published in patent US20150231198A1 (priority 2014, published 2015).

Tests used:
Karpas 299 cell line = test: Flow cytometry apoptosis (Annexin V-FITC/PI), Karpas 299; type: cell-based
Karpas 299 = test: cells; type: cell-based; conditions: Homo sapiens, KARPAS-299, 48 h, read-out: IC50 (concentration that inhibits viability by 50%)
Jurkat = test: cells; type: cell-based; conditions: Homo sapiens, 48 h, read-out: IC50 (concentration that inhibits viability by 50%)
[1] = test system: Primary GFP+ cells from the Itk-Syk transgenic mouse model; test: Apoptosis and synergy in primary GFP+ cells from Itk-Syk transgenic mouse; type: cell-based; conditions: 48 hours
HD-MAR2 = test: cells; type: cell-based; conditions: 48 h, read-out: IC50 (concentration that inhibits viability by 50%)
HH = test: cells; type: cell-based
Sup-T1 = test: cells; type: cell-based; conditions: Homo sapiens, SUP-T1, 48 h, read-out: IC50 (concentration that inhibits viability by 50%)
SUP-T1 cells = test: Flow cytometry apoptosis (Annexin V-FITC/PI), SUP-T1; type: cell-based; conditions: 48 hours
[2] = water; cited from earlier work
[3] = in vivo; cited from earlier work
[4] = test system: protein, primarily albumin; conditions: cited from earlier work
[5] = after intravenous infusion; cited from earlier work

With `C/C=C1\NC(=O)[C@H]2CSSCC/C=C/[C@H](CC(=O)N[C@H](C(C)C)C(=O)N2)OC(=O)[C@H](C(C)C)NC1=O` [romidepsin, (1S,4S,7Z,10S,16E,21R)-7-ethyl idene-4,21-bis(1-methylethyl)-2-oxa-12,13-dithia-5,8,20,23-tetrazabicyclo[8.7.6]tricos-16-ene-3,6,9,19,22-pentone] the “apoptosis induced, % of the cell population” value (Karpas 299 cell line; Karpas 299, romidepsin alone at 1 nM) was “up to 40%”, the IC50 (Karpas 299) was 0.56 nM and the IC50 (Jurkat) was 0.46 nM. The “apoptosis induced, % of the cells” value ([1]; romidepsin alone) was 60%, the IC50 (HD-MAR2) was 0.33 nM and the IC50 (HH; Homo sapiens, 48 h, read-out: IC50 (concentration that inhibits viability by 50%)) was 1.68 nM. For the same molecule, the IC50 (Sup-T1) was 0.94 nM and the “apoptosis induced, % cells” value (SUP-T1 cells; SUP-T1, romidepsin alone) was 31%.

In the case of `Cn1c(CCCC(=O)O)nc2cc(N(CCCl)CCCl)ccc21` [bendamustine], the apoptotic cells (Karpas 299 cell line; Karpas 299, bendamustine at 10 μM (IC50-60)) is listed as 35%, the solubility [2] is listed as “water soluble” and the IC50 (Karpas 299) is listed as 32000 nM. The IC50 (Jurkat) was 17800 nM, the “incidence of hair loss (alopecia)” value [3] was “low incidence” and the “apoptosis induced, % of the cells” value ([1]; bendamustine alone) was 72%. For the same molecule, the IC50 (HD-MAR2) was 9330 nM, the “growth inhibition (sensitivity of cell line)” value (HH; concentrations as high as 30 μM, 48 hours of exposure) was “resistant” and the IC50 (Sup-T1) was 8880 nM. For the same molecule, the “drug bound to protein” value [4] was “More than 95%”, the “half-life (first phase of biphasic elimination)” value [5] was 6 to 10 min and the terminal half-life [5] was “approximately 30 minutes”. The “apoptosis induced, % cells” value (SUP-T1 cells; SUP-T1, bendamustine alone) was 50%.
